{"source": "patent US5041238A", "about": "“o,o'-Bridged oligophenylene laser dyes, dyestuff lasers and methods of lasing therewith” (Exciton Chemical Company, priority 1988, dated 1991)", "key": {"[1]": {"test": "Fluorescence emission spectrum (Perkin-Elmer MPF-44A)", "assay_type": "physicochemical", "settings": "for Fluorescence peak 1, intensity / Fluorescence peak 1, wavelength / Fluorescence peak 2, intensity / Fluorescence peak 2, wavelength / Fluorescence emission peak 1, intensity / Fluorescence emission peak 1, wavelength / Fluorescence emission peak 2, intensity / Fluorescence emission peak 2, wavelength: slits 2 nm; for Fluorescence emission peak 1, intensity / Fluorescence emission peak 1, wavelength / Fluorescence emission peak 2, intensity / Fluorescence emission peak 2, wavelength: excitation 265 nm", "description": "(§1) The fluorescence emission spectrum for the dye 9,9-dipropylfluorene as illustrated in FIG. 1 was detected on a Perkin-Elmer MPF-44A, the slits were set at 2 nm and the excitation light was at 265 nm. The Fluorescence Quantum Efficiency (FQE) was about the same as that of fluorene - 55%; and the fluorescence emission peaks at 306 nm(intensity 86) and 316 nm(intensity 67) were also similar to those of fluorene [the fluorescence emission spectrum for fluorene as illustrated in FIG. 5 was also detected on a Perkin-Elmer MPF-44A, the slits were set at 2 nm and the excitation light was at 265 nm and the fluorescence emission peaks for fluorene are at 303 nm(intensity 93) and 311 nm(intensity 73)].\nThis dye had two fluorescence peaks of almost equal intensity at 360 nm(intensity 33) and 378 nm(intensity 28) as illustrated in FIG. 2. […] The fluorescence emission spectrum of the dye 9,9,9',9'-tetrapropyl-2,2'-bifluorene was detected on a Perkin-Elmer MPF-44A, the slits were set at 2 nm and the excitation light was at 331 nm.\n(§2) This dye had fluorescence peaks at 324 nm(intensity 90) and 338 nm(intensity 76) and a reported fluorescence quantum yield of 100% in cyclohexane as illustrated in FIG. 3. […] The fluorescence emission spectrum for the dye 3-phenyldibenzofuran as illustrated in FIG. 3 was detected on a Perkin-Elmer MPF-44A, the slits were set at 2 nm and the excitation light was at 301 nm.\nThe dye, 3,3'-bi(dibenzofuran), was prepared in accordance with the process disclosed in H. O. Wirth, G. Waese and W. Kern: Synthese Und Eigenschaften Von: Oxydo-p-oligophenylenen. Makromol. Chem. 86: 139(1965) which is incorporated herein in its entirety by reference, and was purified by extraction from Brockmann Activity I alumina with chloroform in an Ace-Kauffman column to give a white solid, mp 249.5°-250.5° C. (lit.mp 252.5° C.). This dye had two fluorescence peaks of almost equal intensity at 353 nm(intensity 47) and 369 nm(intensity 30) in cyclohexane as illustrated in FIG. 4."}, "[2]": {"test": "Solubilities of o,o'-bridged oligophenylenes at 21° C. in laser solvents", "assay_type": "physicochemical", "settings": "comparison in laser solvents", "method": "SOLUBILITIES OF o,o'-BRIDGED OLIGOPHENYLENES AT 21° C."}, "[3]": {"test": "Fluorescence quantum efficiency / quantum yield", "assay_type": "physicochemical", "description": "as §1, §2"}, "[4]": {"settings": "cyclohexane; cited from earlier work"}, "[5]": {"test": "Violet fluorescence in alcohols", "assay_type": "physicochemical", "method": "The dye, 9,9'-diethyl-2,2'-bicarbazole, was prepared from the above intermediate as follows. To a mixture of 1.10 g (4 mMol) of 2-bromo-9-ethylcarbazole and 0.096 g of cut magnesium ribbon in 4 ml of refluxing ether was added 50 microliters of 1,2-dibromoethane. Refluxing was continued for 18 hrs. The solution was cooled and 386 microliters (0.455 g) of cis-1,4-dichloro-2-butene was added. As the solution was returned to reflux, a precipate appeared. After three hours the mixture was filtered. The solid was recrystallized from 2-methoxyethanol with a hot filtration to give 0.124 g (12% of theory) of product, mp 239°-40° C."}}, "data": [{"smiles": "c1ccc2c(c1)oc1cc(-c3ccc4c(c3)oc3ccccc34)ccc12", "note": "[3,3'-bi(dibenzofuran)]", "values": [{"measurement": "Fluorescence emission spectrum compared with dye of Example 2", "setting": "[1]", "result": "almost superimposable on that of the dye discussed in Example 2"}, {"measurement": "Fluorescence peak 1, intensity", "setting": "[1]; cyclohexane, excitation 323 nm", "result": 47}, {"measurement": "Fluorescence peak 1, wavelength", "setting": "[1]; cyclohexane, excitation 323 nm", "result": 353, "unit": "nm"}, {"measurement": "Fluorescence peak 2, intensity", "setting": "[1]; cyclohexane, excitation 323 nm", "result": 30}, {"measurement": "Fluorescence peak 2, wavelength", "setting": "[1]; cyclohexane, excitation 323 nm", "result": 369, "unit": "nm"}, {"measurement": "Solubility compared with another dye (words)", "setting": "[2]", "result": "greater than that of 2,2'-bifluorene"}]}, {"smiles": "c1ccc(-c2ccc3c(c2)oc2ccccc23)cc1", "note": "[3-phenyldibenzofuran]", "values": [{"measurement": "FQE in methanol compared with cyclohexane", "setting": "[3]", "result": "the same in methanol as in cyclohexane"}, {"measurement": "Fluorescence peak 1, intensity", "setting": "[1]; cyclohexane, excitation 301 nm", "result": 90}, {"measurement": "Fluorescence peak 1, wavelength", "setting": "[1]; cyclohexane, excitation 301 nm", "result": 324, "unit": "nm"}, {"measurement": "Fluorescence peak 2, intensity", "setting": "[1]; cyclohexane, excitation 301 nm", "result": 76}, {"measurement": "Fluorescence peak 2, wavelength", "setting": "[1]; cyclohexane, excitation 301 nm", "result": 338, "unit": "nm"}, {"measurement": "Solubility compared with another dye (words)", "setting": "[2]", "result": "much greater than that of p-terphenyl"}, {"measurement": "Solubility compared with another dye (words)", "setting": "[2]; listed as 3phenyldibenzofuran", "result": "much more soluble in methanol, 50% ethanol, 95% ethanol and absolute"}, {"measurement": "Fluorescence quantum yield (reported)", "setting": "[4]", "result": 100, "unit": "%"}]}, {"smiles": "CCn1c2ccccc2c2ccc(-c3ccc4c5ccccc5n(CC)c4c3)cc21", "note": "[9,9'-diethyl-2,2'-bicarbazole]", "values": [{"measurement": "Violet fluorescence in alcohols compared with compounds of Examples 2 and 4", "setting": "[5]", "result": "brighter violet fluorescence in alcohols than the compounds of Examples 2 and 4"}]}, {"smiles": "CCCC1(CCC)c2ccccc2-c2ccc(-c3ccc4c(c3)C(CCC)(CCC)c3ccccc3-4)cc21", "note": "[9,9,9',9'-tetrapropyl-2,2'-bifluorene]", "values": [{"measurement": "Fluorescence peak 1, intensity", "setting": "[1]; excitation 331 nm", "result": 33}, {"measurement": "Fluorescence peak 1, wavelength", "setting": "[1]; excitation 331 nm", "result": 360, "unit": "nm"}, {"measurement": "Fluorescence peak 2, intensity", "setting": "[1]; excitation 331 nm", "result": 28}, {"measurement": "Fluorescence peak 2, wavelength", "setting": "[1]; excitation 331 nm", "result": 378, "unit": "nm"}, {"measurement": "Solubility compared with another dye (words)", "setting": "[2]", "result": "more soluble than 2,2'-bifluorene in solvents"}]}, {"smiles": "CCCC1(CCC)c2ccccc2-c2ccccc21", "note": "[9,9-dipropylfluorene]", "values": [{"measurement": "Fluorescence emission peak 1, intensity", "setting": "[1]", "result": 86}, {"measurement": "Fluorescence emission peak 1, wavelength", "setting": "[1]", "result": 306, "unit": "nm"}, {"measurement": "Fluorescence emission peak 2, intensity", "setting": "[1]", "result": 67}, {"measurement": "Fluorescence emission peak 2, wavelength", "setting": "[1]", "result": 316, "unit": "nm"}]}, {"smiles": "c1ccc2c(c1)Cc1ccccc1-2", "note": "[fluorene, reference compound]", "values": [{"measurement": "Fluorescence emission peak 1, intensity", "setting": "[1]", "result": 93}, {"measurement": "Fluorescence emission peak 1, wavelength", "setting": "[1]", "result": 303, "unit": "nm"}, {"measurement": "Fluorescence emission peak 2, intensity", "setting": "[1]", "result": 73}, {"measurement": "Fluorescence emission peak 2, wavelength", "setting": "[1]", "result": 311, "unit": "nm"}]}]}
